According to ChEMBL document CHEMBL1159170 (Bioorg Med Chem Lett, 1995):
Calls of active or inactive are those of the source. The rule behind the calls is not given here.

What was measured:
[1] = tested on: Canis familiaris; experiment: Ability to induce dilation of dog femoral artery when administered intravenously; Values is potency versus DPDA; assay type: functional, Canis lupus familiaris
[2] = target: T1, Adrenergic receptor alpha-1 (Homo sapiens, UniProt P35348+P25100+P35368); experiment: Compound was tested for its binding affinity against Alpha-1 adrenergic receptor; assay type: protein assay
T1 sequence (P35348 whole entry): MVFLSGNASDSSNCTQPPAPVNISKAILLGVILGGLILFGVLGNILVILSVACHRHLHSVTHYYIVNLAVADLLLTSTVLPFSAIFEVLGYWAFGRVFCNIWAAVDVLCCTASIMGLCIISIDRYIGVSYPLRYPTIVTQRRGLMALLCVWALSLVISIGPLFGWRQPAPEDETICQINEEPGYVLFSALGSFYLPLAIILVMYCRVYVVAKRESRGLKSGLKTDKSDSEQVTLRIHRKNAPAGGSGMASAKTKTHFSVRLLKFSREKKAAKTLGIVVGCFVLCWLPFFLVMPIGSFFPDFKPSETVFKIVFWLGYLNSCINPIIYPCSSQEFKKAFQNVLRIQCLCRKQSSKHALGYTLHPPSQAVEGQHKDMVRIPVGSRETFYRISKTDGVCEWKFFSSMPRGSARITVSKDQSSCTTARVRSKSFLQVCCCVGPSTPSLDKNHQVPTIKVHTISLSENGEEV
T1 sequence (P25100 whole entry): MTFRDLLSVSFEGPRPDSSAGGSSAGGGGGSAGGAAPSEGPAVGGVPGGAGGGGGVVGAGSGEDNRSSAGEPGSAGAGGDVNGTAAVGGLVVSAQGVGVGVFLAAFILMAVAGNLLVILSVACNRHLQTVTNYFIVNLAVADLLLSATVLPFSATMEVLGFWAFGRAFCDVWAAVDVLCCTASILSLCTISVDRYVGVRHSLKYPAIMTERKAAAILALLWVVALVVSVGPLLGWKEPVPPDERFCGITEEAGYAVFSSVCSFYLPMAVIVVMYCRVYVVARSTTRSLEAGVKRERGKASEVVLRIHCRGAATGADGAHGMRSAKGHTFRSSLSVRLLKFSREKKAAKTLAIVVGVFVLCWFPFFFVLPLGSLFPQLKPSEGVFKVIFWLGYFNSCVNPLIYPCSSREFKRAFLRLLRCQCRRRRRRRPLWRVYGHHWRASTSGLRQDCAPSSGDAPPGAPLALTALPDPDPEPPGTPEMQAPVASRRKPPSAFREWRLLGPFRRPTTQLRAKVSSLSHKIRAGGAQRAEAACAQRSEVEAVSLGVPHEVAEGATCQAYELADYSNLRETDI
T1 sequence (P35368 whole entry): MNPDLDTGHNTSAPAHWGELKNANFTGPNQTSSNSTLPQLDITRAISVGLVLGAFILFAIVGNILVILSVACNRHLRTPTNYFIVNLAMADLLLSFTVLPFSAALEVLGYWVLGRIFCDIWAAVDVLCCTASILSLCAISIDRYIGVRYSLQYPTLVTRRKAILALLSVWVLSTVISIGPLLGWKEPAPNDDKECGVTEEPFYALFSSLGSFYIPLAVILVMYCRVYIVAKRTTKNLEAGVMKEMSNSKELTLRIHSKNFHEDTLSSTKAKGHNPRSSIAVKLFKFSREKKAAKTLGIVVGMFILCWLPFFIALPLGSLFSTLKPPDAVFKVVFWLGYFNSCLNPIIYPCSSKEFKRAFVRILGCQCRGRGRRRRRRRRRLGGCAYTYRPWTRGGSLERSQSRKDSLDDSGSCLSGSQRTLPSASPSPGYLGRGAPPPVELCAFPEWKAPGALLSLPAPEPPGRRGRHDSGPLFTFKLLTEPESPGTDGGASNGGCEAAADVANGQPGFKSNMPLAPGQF

[3] = target: Beta-1 adrenergic receptor (Homo sapiens) (UniProt P08588); experiment: Compound was tested for its binding affinity against Beta-1 adrenergic receptor; IA is Inactive
Chain of Beta-1 adrenergic receptor (Homo sapiens) (P08588 whole entry, looked up): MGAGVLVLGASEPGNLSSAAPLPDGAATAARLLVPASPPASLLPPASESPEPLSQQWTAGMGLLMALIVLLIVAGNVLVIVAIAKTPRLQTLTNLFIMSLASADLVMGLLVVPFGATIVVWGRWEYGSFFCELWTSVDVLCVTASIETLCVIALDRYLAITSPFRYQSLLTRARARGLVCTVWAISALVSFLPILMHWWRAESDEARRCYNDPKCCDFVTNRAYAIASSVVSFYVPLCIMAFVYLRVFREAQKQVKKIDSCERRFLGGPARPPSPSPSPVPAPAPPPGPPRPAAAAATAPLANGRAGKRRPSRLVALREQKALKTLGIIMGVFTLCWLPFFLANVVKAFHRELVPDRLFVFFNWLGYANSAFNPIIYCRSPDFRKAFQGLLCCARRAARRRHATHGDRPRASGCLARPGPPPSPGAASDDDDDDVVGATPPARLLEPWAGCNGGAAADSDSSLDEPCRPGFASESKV

[4] = tested on: Canis familiaris; experiment: Blockade of dog renal artery dilation by the […] was measured after intravenous administration of 0.05-0.1 mg/kg; assay type: functional, Canis lupus familiaris
[5] = tested on: Canis familiaris; experiment: Ability to induce dilation of dog renal artery when administered intravenously; Values is potency versus DPDA; assay type: functional, Canis lupus familiaris
[6] = target: Beta-2 adrenergic receptor (Homo sapiens) (UniProt P07550); experiment: Compound was tested for its binding affinity against beta-2 adrenoceptor; IA is Inactive
Chain of Beta-2 adrenergic receptor (Homo sapiens) (P07550 whole entry, looked up): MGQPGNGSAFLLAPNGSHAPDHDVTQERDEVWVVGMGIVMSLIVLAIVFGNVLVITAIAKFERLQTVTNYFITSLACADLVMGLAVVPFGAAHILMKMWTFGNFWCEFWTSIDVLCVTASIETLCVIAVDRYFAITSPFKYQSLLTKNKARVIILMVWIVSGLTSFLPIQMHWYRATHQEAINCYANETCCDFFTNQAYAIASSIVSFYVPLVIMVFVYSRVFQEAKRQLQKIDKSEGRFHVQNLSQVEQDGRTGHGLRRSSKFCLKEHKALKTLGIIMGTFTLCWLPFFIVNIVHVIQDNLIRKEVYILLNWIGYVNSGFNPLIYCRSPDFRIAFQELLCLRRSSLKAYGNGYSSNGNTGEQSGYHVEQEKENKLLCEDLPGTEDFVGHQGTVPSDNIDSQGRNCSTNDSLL

[7] = tested on: Canis familiaris; experiment: Blockade of dog femoral artery dilation by the D-2 antagonist domperidone was measured after intravenous administration of […]; assay type: functional, Canis lupus familiaris
[8] = target: D(2) dopamine receptor (Rattus norvegicus, UniProt P61169); experiment: Binding affinity against Dopamine receptor D2 in rat striatal membranes using [3H]spiperone; assay type: cell membranes, Striatum, Membrane
Chain of D(2) dopamine receptor (P61169 whole entry): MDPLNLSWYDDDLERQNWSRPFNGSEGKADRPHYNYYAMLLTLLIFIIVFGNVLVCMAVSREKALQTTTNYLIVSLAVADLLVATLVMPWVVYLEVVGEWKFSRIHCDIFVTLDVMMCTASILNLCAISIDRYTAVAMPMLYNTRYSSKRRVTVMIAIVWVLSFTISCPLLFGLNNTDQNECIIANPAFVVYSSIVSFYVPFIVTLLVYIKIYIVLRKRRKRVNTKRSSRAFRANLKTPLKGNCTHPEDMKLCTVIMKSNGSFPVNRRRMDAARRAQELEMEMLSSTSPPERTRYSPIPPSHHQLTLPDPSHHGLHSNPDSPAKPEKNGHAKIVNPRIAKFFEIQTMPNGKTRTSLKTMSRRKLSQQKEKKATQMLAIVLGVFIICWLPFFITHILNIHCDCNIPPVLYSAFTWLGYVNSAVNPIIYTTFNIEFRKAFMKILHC

[9] = target: D(1A) dopamine receptor (Rattus norvegicus, UniProt P18901); experiment: Binding affinity against Dopamine receptor D1 in rat striatal membranes using [3H]SCH-23390; assay type: cell membranes, Striatum, Membrane
Chain of D(1A) dopamine receptor (P18901 whole entry): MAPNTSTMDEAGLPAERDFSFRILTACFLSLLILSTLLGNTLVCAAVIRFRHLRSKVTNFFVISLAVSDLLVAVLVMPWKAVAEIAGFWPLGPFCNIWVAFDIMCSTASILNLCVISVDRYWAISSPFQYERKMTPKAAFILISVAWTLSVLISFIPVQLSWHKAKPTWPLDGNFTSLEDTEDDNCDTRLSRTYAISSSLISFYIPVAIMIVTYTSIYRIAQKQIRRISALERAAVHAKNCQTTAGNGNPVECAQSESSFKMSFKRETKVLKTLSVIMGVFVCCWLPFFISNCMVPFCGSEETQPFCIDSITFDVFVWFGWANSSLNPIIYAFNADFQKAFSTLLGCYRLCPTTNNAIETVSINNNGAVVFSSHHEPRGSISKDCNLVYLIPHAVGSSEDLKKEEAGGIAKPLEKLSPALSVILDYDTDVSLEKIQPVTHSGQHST

[10] = tested on: Rattus norvegicus; experiment: Compound was tested for mean blood pressure effect in conscious spontaneously hypertensive rats after peroral administration of 30 mg/kg; assay type: functional; conditions: route oral
[11] = tested on: Rattus norvegicus; experiment: Compound was tested for urine flow in conscious spontaneously hypertensive rats after peroral administration of 30 mg/kg; assay type: functional; conditions: route oral

Row | Structure (SMILES) | Change in blood flow [1] | Log Ki [2] | Log Ki [3] | Blockade [4] | Change in blood flow [5] | Log Ki [6] | Blockade [7] | Ki [8] | Ki [9] | Decrease in blood pressure [10] | Cumulative urine volume [11]
1 | Oc1ccc(C[C@H]2CCCN2CCCCCCN2CCC[C@H]2Cc2ccc(O)c(O)c2)cc1O | 80 | -6.24 | inactive | 100% | 9.4 | inactive | 20% | 0.00891 µM | 0.575 µM |  | 
2 | CCCN(CCCCCCN1CCC[C@@H]1Cc1ccc(O)c(O)c1)CCc1ccc(O)c(O)c1 | 382 | -6.41 | inactive | 100% | 6 | inactive | 70% | 0.00324 µM | 0.0186 µM | 18.6 | 24
3 | CCCN(CCC)CCc1ccc(O)c(O)c1 | 1 | -5.7 |  |  |  |  | 80% | 0.0224 µM | 4.68 µM |  | 
4 | Oc1ccc(C2CNCCc3c2cc(O)c(O)c3Cl)cc1 (stereo not given) [FENOLDOPAM] | 0.2 |  |  | 100% | 8 |  | 20% |  |  |  | 
5 | Oc1ccc(C[C@@H]2CCCN2CCCCCCN2CCC[C@H]2Cc2ccc(O)c(O)c2)cc1O | 0.3 | -6.41 | inactive | 100% | 1.2 | inactive | 0% | 0.0148 µM | 0.617 µM |  | 
6 | NCCc1ccc(O)c(O)c1 [DOPAMINE] |  |  |  | 100% | 1 |  |  |  |  | 9.4 | 4
7 | CCCCN1CCCC1Cc1ccc(O)c(O)c1 (stereo not given) |  |  |  |  |  |  |  | 0.00316 µM | 0.00794 µM |  | 
8 | Oc1ccc(C[C@H]2CCCN2CCCCCCN2CCC[C@@H]2Cc2ccc(O)c(O)c2)cc1O | 359 | -7.25 | inactive | 100% | 1.2 | inactive | 70% | 0.00617 µM | 0.00646 µM | 22.4 | 17
